Measurements reported in article PMC9545474, “Anticancer Water‐Soluble Organoruthenium Complexes: Synthesis and Preclinical Evaluation” (Chembiochem, 2022).

Columns and labels:
A2780 cells [1] = experiment: Cell viability with N-acetylcysteine (MTT), A2780; assay type: cell-based, human; conditions: A2780, NAC 5 mM 30 min before complexes at IC50
Description: Cell viability with N ‐acetylcysteine: Cells were seeded in 96‐well plates at a concentration of 7.5×10^3 cells per well and the plates were incubated for 24 h at 37 °C and a 5 % CO2 humidified atmosphere prior to drug exposure. Complexes were dissolved in either DMSO or PBS to provide stock solutions which were further diluted with media to provide a range of final concentrations. Solution of N‐acetylcysteine (NAC) in media was also prepared. […] Cells were incubated for 24 h at 37 °C and a 5 % CO2 humidified atmosphere. 3‐(4,5‐dimethylthiazol‐2‐yl)‐2,5‐diphenyltetrazolium bromide (MTT) (20 μL, 2.5 mg/mL) was added to each well and plates were incubated for 2 h. All solutions were then removed and 100 μL of DMSO was added to each well in order to dissolve the purple formazan crystals. A Thermo Scientific Multiskan EX microplate photometer was used to measure the absorbance in each well at 570 nm. Cell survival was determined as the absorbance of treated cells divided by the absorbance of controls and expressed as a percentage.

A2780 cells [2] = experiment: FITC annexin-V / PI apoptosis assay by flow cytometry; assay type: cell-based, human; conditions: A2780, 24 h, complexes 2×IC50, doxorubicin 0.5 µM
Source text: Annexin V‐FITC and propidium iodide (PI) have been used to distinguish between viable cells (Q1‐LL), early apoptotic cells (Q1‐LR), late apoptotic cells (Q1‐UR), and necrotic cells (Q1‐UL). […] Both complexes 6 and 8 induce apoptosis of A2780 cells and treatment with the complexes results in 99.6 % and 95.4 % of the cells in late apoptosis, respectively.
Figure 9 Flow cytometry analysis of A2780 cells exposed to complexes 6 or 8 at twice the IC50 concentration compared to a negative control. FITC reads annexin fluorescence and PE reads propidium iodide. Abbreviations: Q1‐UL=non‐viable cells; Q1‐UR=late‐stage apoptotic cells; Q1‐LR=early‐stage apoptotic cells and Q1‐LL=healthy cells.
FITC annexin‐V apoptosis assay: Flow cytometry analysis of apoptotic populations was carried out using the FITC Annexin V Apoptosis Detection Kit with PI (BioLegend®) according to manufacturer's instructions. Briefly, A2780 cells were seeded in 6‐well plates at a concentration of 1.0×10^6 cells per well and the plates were incubated for 24 h at 37 °C and a 5 % CO2 humidified atmosphere. […] Cells were then harvested using trypsin (without EDTA) and stained with PI/Annexin V‐FITC. After staining in the dark for 15 min at room temperature, cell pellets were analysed in a BD Accuri C6 Plus System flow cytometer and data was analysed using the BD Accuri C6 Plus software. These experiments were carried out in duplicate of triplicates in independent experiments; although only selected dot plots are shown, full numerical data and statistical analysis can be found in the Supporting Information.

A2780 cells [3] = experiment: ROS detection, DCFH2-DA assay by flow cytometry; assay type: cell-based, human; conditions: A2780, five hours, IC50 concentrations
Description: To confirm the hypothesis of induction of oxidative stress by complexes 6 and 8, based on the potential mechanism of action observed for complex 3, the intracellular production of ROS in A2780 cells exposed to the complexes was investigated using the fluorescent DCFH2‐DA assay with the analysis performed by flow cytometry.
ROS detection: Flow cytometry analysis of total induction of ROS in A2780 cells caused by exposure to complexes 6 and 8 was carried out using DCFH2‐DA assay. Briefly, 1.0×10^6 cells per well were seeded in a 6‐well plate and incubated for 24 at 37 °C and a 5 % CO2 humidified atmosphere. After removal of the media, cells were washed with PBS and loaded with DCFH2‐DA dye (20 μM, in basal RPMI). […] Cells were washed with PBS and harvested with trypsin. Cells were analysed in a BD Accuri C6 Plus System Flow Cytometer using Ex/Em: 490/525 nm for the oxidative stress detection. Data was analysed using the BD Accuri C6 Plus software.

[4] = system: PNT2 non-cancerous human prostate cells; experiment: 24-hour MTT chemosensitivity assay with 72-hour recovery, PNT2; assay type: cell-based; conditions: 24 h exposure, 72 h recovery, MTT; read-out: IC50 values ±SD, PNT2
Description: Chemosensitivity studies were undertaken using a 24‐hour MTT assay, with a 72‐hour recovery period. The IC50 values were determined against ovarian A2780 (cisplatin‐sensitive) and A2780cisR (cisplatin‐resistant) cancer cell lines, non‐small‐cell lung H460 cancer cell line, and normal prostate PNT2 cell line, exposed to each of compounds 4–8, cisplatin or the phosphine ligands (Table 1 and S4, Figures S29–S31). […] This is unusual but can be related to solubility issues not visible for the naked eye and thus hindering its activity in cells. […] When tested on their own, the phosphine ligands are not active below 100 μM for all four cell lines. […] This therefore prevents comparison with the well‐known RAPTA family, and more especially with RAPTA−C which bears a PTA ligand and a p‐cym ligand, making this complex relatively similar in terms of geometry with complex 4.[21] […] This confirms the interest of the sulfur coordinating atom in terms of cytotoxicity for organoruthenium complexes.[23]
Chemosensitivity assay: In vitro chemosensitivity tests were performed against A2780, A2780cisR, PNT2 and H460 cells. Cells were routinely maintained as monolayer cultures in RPMI 1640 medium supplemented with 10 % foetal calf serum, penicillin (100 I.U./mL) and streptomycin (100 μg/mL), sodium pyruvate (1 mM) and L‐glutamine (2 mM). For chemosensitivity studies, cells were seeded in 96‐well plates at a concentration of 7.5×10^3 cells per well and the plates were incubated for 24 h at 37 °C and a 5 % CO2 humidified atmosphere prior to drug exposure.
Complexes were dissolved in either DMSO (complexes 4, 5, and 8) or PBS (complexes 6 and 7) to provide stock solutions which were further diluted with media to provide a range of final concentrations. Drug‐media solutions were added to cells (the final concentration of DMSO was less than 1 % (v/v) in all cases) and incubated for 24 h at 37 °C and a 5 % CO2 humidified atmosphere. The drug‐media solution was removed from the wells and the cells were washed with PBS (100 μL, twice) and 200 μL of complete fresh media were added to each well. The plates were further incubated for 72 h at 37 °C and a 5 % CO2 humidified atmosphere to allow for a period of recovery. 3‐(4,5‐dimethylthiazol‐2‐yl)‐2,5‐diphenyltetrazolium bromide (MTT) (40 μL, 2.5 mg/mL) was added to each well and plates were incubated for 2 h. All solutions were then removed and 100 μL of DMSO was added to each well in order to dissolve the purple formazan crystals. A Thermo Scientific Multiskan EX microplate photometer was used to measure the absorbance in each well at 570 nm. Cell survival was determined as the absorbance of treated cells divided by the absorbance of controls and expressed as a percentage. The IC50 values were determined from plots of % survival against drug concentration. Each experiment was repeated in triplicates of triplicates and a mean value was obtained and stated as IC50 (μM) ± SD. Untreated cells were used as a negative control, and cells treated with cisplatin were used as a positive control.

[5] = Combined results, Average of two experiments

Molecule | Cell viability after pre-treatment with NAC (A2780 cells [1]) | Early apoptosis (Q1-LR) (A2780 cells [2]; [5]) | Late apoptosis (Q1-UR) (A2780 cells [2]; [5]) | Necrosis (Q1-UL) (A2780 cells [2]; [5]) | Viable cells (Q1-LL) (A2780 cells [2]; [5]) | Early apoptosis (Q1-LR) (A2780 cells [2]; Experiment 1, Average) | Late apoptosis (Q1-UR) (A2780 cells [2]; Experiment 1, Average) | Necrosis (Q1-UL) (A2780 cells [2]; Experiment 1, Average) | Viable cells (Q1-LL) (A2780 cells [2]; Experiment 1, Average) | Early apoptosis (Q1-LR) (A2780 cells [2]; Experiment 1, Rep 1) | Late apoptosis (Q1-UR) (A2780 cells [2]; Experiment 1, Rep 1) | Necrosis (Q1-UL) (A2780 cells [2]; Experiment 1, Rep 1) | Viable cells (Q1-LL) (A2780 cells [2]; Experiment 1, Rep 1) | Early apoptosis (Q1-LR) (A2780 cells [2]; Experiment 1, Rep 2) | Late apoptosis (Q1-UR) (A2780 cells [2]; Experiment 1, Rep 2) | Necrosis (Q1-UL) (A2780 cells [2]; Experiment 1, Rep 2) | Viable cells (Q1-LL) (A2780 cells [2]; Experiment 1, Rep 2) | Early apoptosis (Q1-LR) (A2780 cells [2]; Experiment 1, Rep 3) | Late apoptosis (Q1-UR) (A2780 cells [2]; Experiment 1, Rep 3) | Necrosis (Q1-UL) (A2780 cells [2]; Experiment 1, Rep 3) | further results
Cc1ccc(C(C)C)cc1.N#CC1=C(C#N)[S][Ru-]([P+](c2ccccc2)(c2ccccc2)c2ccccc2)[S]1 [Complex 8, (η^6‐p‐cymene)(PPh3)Ru(Mnt)] | increase of the cell viability | 2.5% | 94.4% | 0.5% | 2.6% | 2.6% | 94.3% | 0.4% | 2.7% | 2.6% | 95.4% | 0.3% | 1.7% | 2.2% | 94.5% | 0.4% | 2.8% | 3.0% | 93.0% | 0.6% | Viable cells (Q1-LL) (A2780 cells [2]; Experiment 1, Rep 3): 3.5%; Early apoptosis (Q1-LR) (A2780 cells [2]; Experiment 2, Average): 2.4%; Late apoptosis (Q1-UR) (A2780 cells [2]; Experiment 2, Average): 94.5%; Necrosis (Q1-UL) (A2780 cells [2]; Experiment 2, Average): 0.6%; Viable cells (Q1-LL) (A2780 cells [2]; Experiment 2, Average): 2.5%; Early apoptosis (Q1-LR) (A2780 cells [2]; Experiment 2, Rep 1): 2.0%; Late apoptosis (Q1-UR) (A2780 cells [2]; Experiment 2, Rep 1): 95.1%; Necrosis (Q1-UL) (A2780 cells [2]; Experiment 2, Rep 1): 0.6%; Viable cells (Q1-LL) (A2780 cells [2]; Experiment 2, Rep 1): 2.3%; Early apoptosis (Q1-LR) (A2780 cells [2]; Experiment 2, Rep 2): 2.3%; Late apoptosis (Q1-UR) (A2780 cells [2]; Experiment 2, Rep 2): 94.2%; Necrosis (Q1-UL) (A2780 cells [2]; Experiment 2, Rep 2): 0.8%; Viable cells (Q1-LL) (A2780 cells [2]; Experiment 2, Rep 2): 2.7%; Early apoptosis (Q1-LR) (A2780 cells [2]; Experiment 2, Rep 3): 2.9%; Late apoptosis (Q1-UR) (A2780 cells [2]; Experiment 2, Rep 3): 94.1%; Necrosis (Q1-UL) (A2780 cells [2]; Experiment 2, Rep 3): 0.5%; Viable cells (Q1-LL) (A2780 cells [2]; Experiment 2, Rep 3): 2.5%; ROS levels in treated cells compared to untreated cells (A2780 cells [3]): significant increase of ROS levels; IC50 [4]: 2400 ± 200 nM
(η^6‐p‐cymene)(TPPTS)Ru(Mnt) [Complex 6] | increase of the cell viability | 0.1% | 99.8% | 0.0% | 0.2% | 0.1% | 99.6% | 0.0% | 0.2% | 0.1% | 99.6% | 0.0% | 0.2% | 0.1% | 99.6% | 0.0% | 0.2% | 0.2% | 99.5% | 0.0% | Viable cells (Q1-LL) (A2780 cells [2]; Experiment 1, Rep 3): 0.3%; Early apoptosis (Q1-LR) (A2780 cells [2]; Experiment 2, Average): 0.0%; Late apoptosis (Q1-UR) (A2780 cells [2]; Experiment 2, Average): 99.9%; Necrosis (Q1-UL) (A2780 cells [2]; Experiment 2, Average): 0.0%; Viable cells (Q1-LL) (A2780 cells [2]; Experiment 2, Average): 0.1%; Early apoptosis (Q1-LR) (A2780 cells [2]; Experiment 2, Rep 1): 0.0%; Late apoptosis (Q1-UR) (A2780 cells [2]; Experiment 2, Rep 1): 99.9%; Necrosis (Q1-UL) (A2780 cells [2]; Experiment 2, Rep 1): 0.0%; Viable cells (Q1-LL) (A2780 cells [2]; Experiment 2, Rep 1): 0.1%; Early apoptosis (Q1-LR) (A2780 cells [2]; Experiment 2, Rep 2): 0.0%; Late apoptosis (Q1-UR) (A2780 cells [2]; Experiment 2, Rep 2): 99.9%; Necrosis (Q1-UL) (A2780 cells [2]; Experiment 2, Rep 2): 0.0%; Viable cells (Q1-LL) (A2780 cells [2]; Experiment 2, Rep 2): 0.0%; Early apoptosis (Q1-LR) (A2780 cells [2]; Experiment 2, Rep 3): 0.0%; Late apoptosis (Q1-UR) (A2780 cells [2]; Experiment 2, Rep 3): 99.9%; Necrosis (Q1-UL) (A2780 cells [2]; Experiment 2, Rep 3): 0.0%; Viable cells (Q1-LL) (A2780 cells [2]; Experiment 2, Rep 3): 0.1%; ROS levels in treated cells compared to untreated cells (A2780 cells [3]): significant increase of ROS levels; IC50 [4]: 1600 ± 300 nM
